Results: patent publication US20110097274A1, “Carbon-11 and fluorine-18 labeled radioligands for positron emission tomography (PET) imaging for the brain serotonin transporters” (priority 2002, published 2011)
Values joined by “and” are separate entries in the source; they are usually repeats but may differ in a detail not shown here. Equal entries are not always repeated. Where two headings read alike, the source gives them in different places.

Columns and labels:
[1] = Plasma free fraction (f1) and filter retention by ultrafiltration; format: in vitro ADME, baboon; conditions: mean ± SD of four experiments
Protocol: Plasma and ultrafiltrate activities were counted, and f1 was calculated as the ratio of ultrafiltrate activity to total plasma activity. Triplicate aliquots of the radioligand in pH 7.4 Tris buffer were also processed to determine the filter retention of free tracer.

[2] = Baboon PET imaging: brain uptake, kinetic analysis and SERT parameters; format: in vivo; conditions: male, baboon, intravenous, baboons
Outline: (§1)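 Two isoflurane-anaesthetised adult male baboons, each radioligand tested twice (test-retest); i.v. bolus, 91 min 3D emission scan with arterial sampling, MRI-defined regions. Brain uptake as % ID g^−1, with peak time and washout; VT from one-tissue compartment model (K1/k2) using arterial plasma input.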

[3] = tested on: SERT; test: as above; format: in vivo; conditions: for Kp: male, baboon, brain, intravenous
Outline: as §1

[4] = BP = VT ROI − VT CER, baboons, mean ± SD of four experiments
[5] = Mean ± SD of four experiments in two baboons
[6] = baboons, mean ± SD of four experiments
[7] = last scan 90 minutes, baboons, mean ± SD of four experiments
[8] = one-tissue compartment model, baboons, mean ± SD of four experiments

**Q.** For `CN(C)Cc1ccccc1Sc1ccc(C#N)cc1N` [[^11C]DASB], which Filter retention ([1]; activity remaining on filter, radioligand dissolved in saline) is on record?
**A.** 19.2 ± 4.7%

**Q.** What about the fraction unbound at 20 minutes ([1]; male, baboon plasma, ultrafiltration) of the same molecule?
**A.** 0.135 ± 0.017

**Q.** What about the fraction unbound ([2]; brain nonspecific distribution volume (cerebellum), calculated from f1 and cerebellar VT, read-out: f2 (free fraction in the nonspecific distribution volume)) of the same molecule?
**A.** 0.0077 ± 0.0008

**Q.** What about the Kp ([2]; brain regions (average of all regions), read-out: VT, average of all regions and all animals) of the same molecule?
**A.** 29.2 ± 11.5

**Q.** And the Kp ([2]; cerebellum, one-tissue compartment model, mean ± SD of four experiments, read-out: VT Cerebellum (VT CER, nonspecific distribution volume))?
**A.** 17.3 ± 0.5

**Q.** What about the “Binding potential Cingulate Cortex” value [3, 4] of the same molecule?
**A.** 3.8 ± 0.8 mL/g

**Q.** What about the “Binding potential Hippocampus” value [3, 4] of the same molecule?
**A.** 10.0 ± 1.3 mL/g

**Q.** And the “Binding potential Midbrain” value [3, 4]?
**A.** 29.1 ± 4.0 mL/g

**Q.** And the “Binding potential Occipital Cortex” value [3, 4]?
**A.** 2.0 ± 1.1 mL/g

**Q.** And the “Binding potential Striatum” value [3, 4]?
**A.** 14.4 ± 1.5 mL/g

**Q.** And the “Binding potential Temporal Cortex” value [3, 4]?
**A.** 5.1 ± 1.9 mL/g

**Q.** And the “Binding potential Thalamus” value [3, 4]?
**A.** 30.2 ± 4.9 mL/g

**Q.** What about the “Equilibrium specific to non-specific partition coefficient (V3″) Cingulate Cortex” value ([3]; Baboon A, single experiment) of the same molecule?
**A.** 0.26 and 0.25

**Q.** And the “Equilibrium specific to non-specific partition coefficient (V3″) Hippocampus” value ([3]; Baboon A, single experiment)?
**A.** 0.48 and 0.65

**Q.** And the “Equilibrium specific to non-specific partition coefficient (V3″) Midbrain” value ([3]; Baboon A, single experiment)?
**A.** 1.46 and 1.66

**Q.** What about the “Equilibrium specific to non-specific partition coefficient (V3″) Occipital Cortex” value ([3]; Baboon A, single experiment) of the same molecule?
**A.** 0.15 and 0.18

**Q.** And the “Equilibrium specific to non-specific partition coefficient (V3″) Striatum” value ([3]; Baboon A, single experiment)?
**A.** 0.72 and 0.89

**Q.** And the “Equilibrium specific to non-specific partition coefficient (V3″) Temporal Cortex” value ([3]; Baboon A, single experiment)?
**A.** 0.34 and 0.42

**Q.** And the “Equilibrium specific to non-specific partition coefficient (V3″) Thalamus” value ([3]; Baboon A, single experiment)?
**A.** 1.42 and 1.68

**Q.** What about the “Equilibrium specific to non-specific partition coefficient (V3″) Cingulate Cortex” value ([3]; Baboon B, single experiment) of the same molecule?
**A.** 0.21 and 0.16

**Q.** What about the “Equilibrium specific to non-specific partition coefficient (V3″) Hippocampus” value ([3]; Baboon B, single experiment) of the same molecule?
**A.** 0.62 and 0.54

**Q.** And the “Equilibrium specific to non-specific partition coefficient (V3″) Midbrain” value ([3]; Baboon B, single experiment)?
**A.** 1.64 and 1.96

**Q.** And the “Equilibrium specific to non-specific partition coefficient (V3″) Striatum” value ([3]; Baboon B, single experiment)?
**A.** 0.83 and 0.87

**Q.** What about the “Equilibrium specific to non-specific partition coefficient (V3″) Temporal Cortex” value ([3]; Baboon B, single experiment) of the same molecule?
**A.** 0.21

**Q.** What about the “Equilibrium specific to non-specific partition coefficient (V3″) Thalamus” value ([3]; Baboon B, single experiment) of the same molecule?
**A.** 1.79 and 2.07

**Q.** And the “Equilibrium specific to non-specific partition coefficient (V3″) Cingulate Cortex” value [3, 5]?
**A.** 0.22 ± 0.04

**Q.** What about the “Equilibrium specific to non-specific partition coefficient (V3″) Hippocampus” value [3, 5] of the same molecule?
**A.** 0.58 ± 0.08

**Q.** What about the “Equilibrium specific to non-specific partition coefficient (V3″) Midbrain” value [3, 5] of the same molecule?
**A.** 1.68 ± 0.21

**Q.** What about the “Equilibrium specific to non-specific partition coefficient (V3″) Occipital Cortex” value [3, 5] of the same molecule?
**A.** 0.11±0.06

**Q.** And the “Equilibrium specific to non-specific partition coefficient (V3″) Striatum” value [3, 5]?
**A.** 0.83 ± 0.08

**Q.** And the “Equilibrium specific to non-specific partition coefficient (V3″) Temporal Cortex” value [3, 5]?
**A.** 0.29 ± 0.10

**Q.** What about the “Equilibrium specific to non-specific partition coefficient (V3″) Thalamus” value [3, 5] of the same molecule?
**A.** 1.74 ± 0.27

**Q.** What about the “K1, average of all regions and all animals” value ([3]; baboons) of the same molecule?
**A.** 1.21 ± 0.22 mL/g/min

**Q.** What about the “k2, average of all regions and all animals” value ([3]; baboons) of the same molecule?
**A.** 0.047 ± 0.018 min⁻¹

**Q.** What about the “V3″ expressed in percentage of [^11C]McN 5652 V3″” value ([3]; baboons, combining all regions) of the same molecule?
**A.** 142±29%

**Q.** What about the “Mean regional peak uptake time” value ([3]; baboons, mean of all regions) of the same molecule?
**A.** 19 ± 9 min

**Q.** And the “Mean regional wash-out (% decrease between peak time and last scan)” value ([3]; baboons, mean of all regions)?
**A.** 52±19%

**Q.** And the “Regional uptake peak time Cerebellum” value [3, 6]?
**A.** 12 ± 5 min

**Q.** And the “Regional uptake peak time Cingulate Cortex” value [3, 6]?
**A.** 14 ± 3 min

**Q.** And the “Regional uptake peak time Hippocampus” value [3, 6]?
**A.** 22 ± 10 min

**Q.** And the “Regional uptake peak time Midbrain” value [3, 6]?
**A.** 27 ± 13 min

**Q.** And the “Regional uptake peak time Occipital Cortex” value [3, 6]?
**A.** 16 ± 4 min

**Q.** And the “Regional uptake peak time Striatum” value [3, 6]?
**A.** 22 ± 10 min

**Q.** What about the “Regional uptake peak time Temporal Cortex” value [3, 6] of the same molecule?
**A.** 19 ± 5 min

**Q.** And the “Regional uptake peak time Thalamus” value [3, 6]?
**A.** 24 ± 10 min

**Q.** What about the “Total brain uptake at 45 min” value ([3]; baboons, region encompassing the entire brain) of the same molecule?
**A.** 0.013±0.002 % ID g^−1

**Q.** What about the “Regional activity wash-out: % decrease from peak to last scan, Cerebellum” value [3, 7] of the same molecule?
**A.** 68 ± 14%

**Q.** What about the “Regional activity wash-out: % decrease from peak to last scan, Cingulate Cortex” value [3, 7] of the same molecule?
**A.** 64 ± 10%

**Q.** And the “Regional activity wash-out: % decrease from peak to last scan, Hippocampus” value [3, 7]?
**A.** 46 ± 19%

**Q.** What about the “Regional activity wash-out: % decrease from peak to last scan, Midbrain” value [3, 7] of the same molecule?
**A.** 32 ± 19%

**Q.** What about the “Regional activity wash-out: % decrease from peak to last scan, Occipital Cortex” value [3, 7] of the same molecule?
**A.** 65 ± 11%

**Q.** What about the “Regional activity wash-out: % decrease from peak to last scan, Striatum” value [3, 7] of the same molecule?
**A.** 49 ± 18%

**Q.** And the “Regional activity wash-out: % decrease from peak to last scan, Temporal Cortex” value [3, 7]?
**A.** 58 ± 13%

**Q.** What about the “Regional activity wash-out: % decrease from peak to last scan, Thalamus” value [3, 7] of the same molecule?
**A.** 36 ± 16%

**Q.** What about the Kp ([3]; cingulate cortex, one-tissue compartment model, baboons, mean ± SD of four experiments, read-out: VT Cingulate Cortex) of the same molecule?
**A.** 21.1 ± 0.9

**Q.** What about the Kp ([3]; hippocampus, one-tissue compartment model, baboons, mean ± SD of four experiments, read-out: VT Hippocampus) of the same molecule?
**A.** 27.3 ± 1.4

**Q.** What about the Kp ([3]; midbrain, one-tissue compartment model, baboons, mean ± SD of four experiments, read-out: VT Midbrain) of the same molecule?
**A.** 46.4 ± 4.3

**Q.** What about the Kp ([3]; occipital cortex, one-tissue compartment model, baboons, mean ± SD of four experiments, read-out: VT Occipital Cortex) of the same molecule?
**A.** 19.3 ± 1.5

**Q.** What about the Kp ([3]; striatum, one-tissue compartment model, baboons, mean ± SD of four experiments, read-out: VT Striatum) of the same molecule?
**A.** 31.7 ± 1.7

**Q.** What about the Kp ([3]; temporal cortex, one-tissue compartment model, baboons, mean ± SD of four experiments, read-out: VT Temporal Cortex) of the same molecule?
**A.** 22.5 ± 2.1

**Q.** What about the Kp ([3]; thalamus, one-tissue compartment model, baboons, mean ± SD of four experiments, read-out: VT Thalamus) of the same molecule?
**A.** 47.5 ± 5

**Q.** And the “K1 Cerebellum” value [3, 8]?
**A.** 1.36 ± 0.24 mL/g/min

**Q.** And the “K1 Cingulate Cortex” value [3, 8]?
**A.** 1.26 ± 0.09 mL/g/min

**Q.** What about the “K1 Hippocampus” value [3, 8] of the same molecule?
**A.** 0.98 ± 0.20 mL/g/min

**Q.** And the “K1 Midbrain” value [3, 8]?
**A.** 1.23 ± 0.20 mL/g/min

**Q.** And the “K1 Occipital Cortex” value [3, 8]?
**A.** 1.15 ± 0.24 mL/g/min

**Q.** What about the “K1 Striatum” value [3, 8] of the same molecule?
**A.** 1.27 ± 0.21 mL/g/min

**Q.** What about the “K1 Temporal Cortex” value [3, 8] of the same molecule?
**A.** 1.05 ± 0.09 mL/g/min

**Q.** What about the “K1 Thalamus” value [3, 8] of the same molecule?
**A.** 1.35 ± 0.29 mL/g/min

**Q.** And the “K2 Cerebellum” value [3, 8]?
**A.** 0.078 ± 0.013 min⁻¹

**Q.** What about the “K2 Cingulate Cortex” value [3, 8] of the same molecule?
**A.** 0.060 ± 0.004 min⁻¹

**Q.** And the “K2 Hippocampus” value [3, 8]?
**A.** 0.036 ± 0.006 min⁻¹

**Q.** And the “K2 Midbrain” value [3, 8]?
**A.** 0.027 ± 0.005 min⁻¹

**Q.** What about the “K2 Occipital Cortex” value [3, 8] of the same molecule?
**A.** 0.059 ± 0.011 min⁻¹

**Q.** What about the “K2 Striatum” value [3, 8] of the same molecule?
**A.** 0.040 ± 0.007 min⁻¹

**Q.** And the “K2 Temporal Cortex” value [3, 8]?
**A.** 0.047 ± 0.004 min⁻¹

**Q.** What about the “K2 Thalamus” value [3, 8] of the same molecule?
**A.** 0.028 ± 0.006 min⁻¹

**Q.** What about the “VT Cerebellum (VT CER, nonspecific distribution volume)” value [3, 8] of the same molecule?
**A.** 17.3 ± 0.5 mL/g
